Two compounds from paper PMC9841532, “Exploring the Effect of Halogenation in a Series of Potent and Selective A2B Adenosine Receptor Antagonists” (Journal of Medicinal Chemistry, 2022) can be followed below.

This assay relates to human peripheral blood mononuclear cells (PBMCs). Put plainly: Proliferation of CFSE-labeled activated PBMCs in the presence of adenosine. In kind it is cell-based. Conditions: PBMCs + anti-CD3/CD28 + IL-2 + Ado 0.1 mM + compound 15 μM, 3 days. An excerpt: To gain evidence supporting the role of the here optimized A2BAR antagonists in the context of cancer immunotherapy, it was decided to evaluate the effect of two representative compounds (16b and 16j) in the proliferative activity of a prototypical immune cell. The human peripheral blood mononuclear cells (PBMCs) were selected for the study; they are critical components of the immune system and are involved in both humoral and cell-mediated immunity. Ado-mediated blockade of PBMC proliferation is well documented and characterized;[51],[52] we therefore investigated whether our A2BAR antagonists (16b and 16j) can reverse the blockade of ADO-mediated proliferation in human PBMCs. PBMCs, isolated from a healthy donor, were labeled with carboxyfluorescein succinimidyl ester (CFSE) and then activated by adding anti-CD3/CD28 antibodies and interleukin 2 (IL-2). CFSE is a cell dye that allows for the determination of cell proliferation, as dividing cells progressively lose fluorescence.
Figure 10 Effect of compounds 16b and 16j on the proliferation of PBMCs stimulated with antiCD3/CD28 + IL-2 in the presence of adenosine (ADO). […] The frequency of proliferating cells (CFSE^dim) as well as their median fluorescence intensities were quantified and ratios calculated against the values of stimulated PBMCs with no further treatment. […]

On to `CC1=C(C(=O)OC(C)C)C(c2ccco2)n2c(nc3cc(Cl)ccc32)N1` (centres unmarked) [16j], for which the “frequency of proliferating cells (CFSEdim)” value was 6.54%. As for `CC1=C(C(=O)OC(C)C)C(c2ccco2)n2c(nc3cc(F)ccc32)N1` (centres unmarked) [16b], the “frequency of proliferating cells (CFSEdim)” value was found to be 9.14%.
